US20260027068A1, “METHODS OF ADM[…]-KETAMINE” (Perception Neuroscience, Inc., priority 2022, published 2026)

Test: Respiratory rate (vital signs)
Conditions: 30 mg
Description: The Investigational Medicinal Product (IMP) R(−)-ketamine hydrochloride in sterile water for intravenous injection was investigated as an […] treatment of TRD. The International Union of Pure and Applied Chemistry (IUPAC) name is of the IMP is (2R)-2-(2-chlorophenyl)-2-(methylamino)cyclohexan-1-one. Subjects received the solution at either 30 mg or 60 mg dose, or a placebo. The IMP or placebo was administered on Day 1 as a single IV infusion via an electronic infusion pump over 40 minutes. The duration of study participation for each subject was up to 29 days including a screening period, a 3-day in-clinic visit, and 2 follow-up visits. 101 subjects were enrolled in approximately 20 study centers in the EU and the US.
Tympanic or temporal temperature, heart rate, blood pressure (SBP/DBP), respiratory rate, and SpO2 were assessed. Blood pressure and pulse measurements will be assessed with a completely automated device while the subject is supine or semi-supine. Manual techniques will be used only if an automated device is not available. Blood pressure and pulse measurements should be preceded by at least 5 minutes of rest for the subject in a quiet setting without distractions (e.g., television, cell phones). An abnormal blood pressure value at screening may be repeated once after 5 minutes of relaxation to determine the subject's eligibility. Blood pressure was recorded using the same arm and position (supine or semi-supine) throughout the study, where possible. Vital signs (to be taken before blood collection for laboratory tests) consisted of 1 pulse and 3 blood pressure measurements (3 consecutive blood pressure readings will be recorded at intervals of at least 1 minute). The average of the 3 blood pressure readings was recorded in the CRF. A pulse oximeter was used to measure peripheral capillary oxygen saturation (SpO2) continuously from pre-dose until 4-hours post-dose. A pulse oximeter was clipped onto the finger or foot of the subject, and light will be sent through the finger or foot and measured on the other side.
In these tables, baseline value is defined as the last non-missing value prior to study drug administration.

CN[C@@]1(c2ccccc2Cl)CCCCC1=O.Cl [R(−)-ketamine, (2R)-2-(2-chlorophenyl)-2-(methylamino)cyclohexan-1-one]
Respiratory Rate, Max (Day 1, 15 minutes): 22 breaths/minute
Respiratory Rate, Mean (Day 1, 15 minutes): 16.0 breaths/minute
Respiratory Rate, Median (Day 1, 15 minutes): 16.0 breaths/minute
Respiratory Rate, Min (Day 1, 15 minutes): 14 breaths/minute
Respiratory Rate, Max (Day 1, 40 minutes): 18 breaths/minute
Respiratory Rate, Mean (Day 1, 40 minutes): 15.7 breaths/minute
Respiratory Rate, Median (Day 1, 40 minutes): 16.0 breaths/minute
Respiratory Rate, Min (Day 1, 40 minutes): 13 breaths/minute
Respiratory Rate, Max (Day 1, 60 minutes): 17 breaths/minute
Respiratory Rate, Mean (Day 1, 60 minutes): 15.4 breaths/minute
Respiratory Rate, Median (Day 1, 60 minutes): 15.5 breaths/minute
Respiratory Rate, Min (Day 1, 60 minutes): 14 breaths/minute
Respiratory Rate, Max (Day 1, 2 hours): 18 breaths/minute
Respiratory Rate, Mean (Day 1, 2 hours): 15.9 breaths/minute
Respiratory Rate, Median (Day 1, 2 hours): 16.0 breaths/minute
Respiratory Rate, Min (Day 1, 2 hours): 13 breaths/minute
Respiratory Rate, Max (Day 1, 4 hours): 21 breaths/minute
Respiratory Rate, Mean (Day 1, 4 hours): 16.1 breaths/minute
Respiratory Rate, Median (Day 1, 4 hours): 16.0 breaths/minute
Respiratory Rate, Min (Day 1, 4 hours): 14 breaths/minute
Respiratory Rate, Max (Day 1, 6 hours): 18 breaths/minute
Respiratory Rate, Mean (Day 1, 6 hours): 15.9 breaths/minute
Respiratory Rate, Median (Day 1, 6 hours): 16.0 breaths/minute
Respiratory Rate, Min (Day 1, 6 hours): 14 breaths/minute
Respiratory Rate, Max (Day 2 - Discharge): 21 breaths/minute
Respiratory Rate, Mean (Day 2 - Discharge): 15.9 breaths/minute
Respiratory Rate, Median (Day 2 - Discharge): 16.0 breaths/minute
Respiratory Rate, Min (Day 2 - Discharge): 14 breaths/minute
Respiratory Rate, Max (Day 8): 18 breaths/minute
Respiratory Rate, Mean (Day 8): 15.9 breaths/minute
Respiratory Rate, Median (Day 8): 16.0 breaths/minute
Respiratory Rate, Min (Day 8): 14 breaths/minute
Respiratory Rate, Max (Day 15): 18 breaths/minute
Respiratory Rate, Mean (Day 15): 15.7 breaths/minute
Respiratory Rate, Median (Day 15): 16.0 breaths/minute
Respiratory Rate, Min (Day 15): 14 breaths/minute
Respiratory Rate, Change from Baseline, Max (to Day 1, 15 minutes): 3 breaths/minute
Respiratory Rate, Change from Baseline, Mean (to Day 1, 15 minutes): 0.1 breaths/minute
Respiratory Rate, Change from Baseline, Median (to Day 1, 15 minutes): 0.0 breaths/minute
Respiratory Rate, Change from Baseline, Min (to Day 1, 15 minutes): −3 breaths/minute
Respiratory Rate, Change from Baseline, Max (to Day 1, 40 minutes): 2 breaths/minute
Respiratory Rate, Change from Baseline, Mean (to Day 1, 40 minutes): −0.2 breaths/minute
Respiratory Rate, Change from Baseline, Median (to Day 1, 40 minutes): 0.0 breaths/minute
Respiratory Rate, Change from Baseline, Min (to Day 1, 40 minutes): −5 breaths/minute
Respiratory Rate, Change from Baseline, Max (to Day 1, 60 minutes): 3 breaths/minute
Respiratory Rate, Change from Baseline, Mean (to Day 1, 60 minutes): −0.4 breaths/minute
Respiratory Rate, Change from Baseline, Median (to Day 1, 60 minutes): 0.0 breaths/minute
Respiratory Rate, Change from Baseline, Min (to Day 1, 60 minutes): −5 breaths/minute
Respiratory Rate, Change from Baseline, Max (to Day 1, 2 hours): 3 breaths/minute
Respiratory Rate, Change from Baseline, Mean (to Day 1, 2 hours): −0.1 breaths/minute
Respiratory Rate, Change from Baseline, Median (to Day 1, 2 hours): 0.0 breaths/minute
Respiratory Rate, Change from Baseline, Min (to Day 1, 2 hours): −2 breaths/minute
Respiratory Rate, Change from Baseline, Max (to Day 1, 4 hours): 2 breaths/minute
Respiratory Rate, Change from Baseline, Mean (to Day 1, 4 hours): 0.2 breaths/minute
Respiratory Rate, Change from Baseline, Median (to Day 1, 4 hours): 0.0 breaths/minute
Respiratory Rate, Change from Baseline, Min (to Day 1, 4 hours): −2 breaths/minute
Respiratory Rate, Change from Baseline, Max (to Day 1, 6 hours): 2 breaths/minute
Respiratory Rate, Change from Baseline, Mean (to Day 1, 6 hours): −0.0 breaths/minute
Respiratory Rate, Change from Baseline, Median (to Day 1, 6 hours): 0.0 breaths/minute
Respiratory Rate, Change from Baseline, Min (to Day 1, 6 hours): −3 breaths/minute
Respiratory Rate, Change from Baseline, Max (to Day 2 - Discharge): 1 breaths/minute
Respiratory Rate, Change from Baseline, Mean (to Day 2 - Discharge): −0.1 breaths/minute
Respiratory Rate, Change from Baseline, Median (to Day 2 - Discharge): 0.0 breaths/minute
Respiratory Rate, Change from Baseline, Min (to Day 2 - Discharge): −4 breaths/minute
Respiratory Rate, Change from Baseline, Max (to Day 8): 3 breaths/minute
Respiratory Rate, Change from Baseline, Mean (to Day 8): −0.1 breaths/minute
Respiratory Rate, Change from Baseline, Median (to Day 8): 0.0 breaths/minute
Respiratory Rate, Change from Baseline, Min (to Day 8): −5 breaths/minute
Respiratory Rate, Change from Baseline, Max (to Day 15): 1 breaths/minute
Respiratory Rate, Change from Baseline, Mean (to Day 15): −0.3 breaths/minute
Respiratory Rate, Change from Baseline, Median (to Day 15): 0.0 breaths/minute
Respiratory Rate, Change from Baseline, Min (to Day 15): −6 breaths/minute
